# Reference: patent US11000033B2, “Ketone or oxime compound, and herbicide” (NISSAN CHEMICAL CORPORATION, priority 2014, dated 2021)
# What was measured:
# Type in all cases: in vivo
# [1] = tested on: Echinochloa oryzacola Vasing.; experiment: Test Example 1: herbicidal activity, application before weed generation in submerged conditions (symbol A); details: application herbicide amount 320 g/ha
# Method in brief: (§1)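 Greenhouse growth at 25–30 °C lasted 3 weeks after treatment, when each weed was graded 0–5 by herbicidal ratio. Treatment was a diluted emulsion applied to the water surface of 4 cm-submerged alluvial soil on the sowing day.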
# Scirpus juncoides = experiment: Test Example 1: herbicidal activity, application before weed generation in submerged conditions (symbol B); details: application herbicide amount 320 g/ha
# Method in brief: as §1
# [2] = tested on: Echinochloa crus-galli var. crus-galli; experiment: Test Example 3: herbicidal effect by foliage application, Wagner pot (symbol H); details: application herbicide amount 320 g/ha
# Method in brief: (§2)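 Seeds sown in alluvial soil kept under 0.1–0.5 cm water, greenhouse 25–30 °C; 14 d growth. Leaves treated by small sprayer with water-diluted emulsion at a predetermined rate. Effect graded by set scale, 3 weeks.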
# Leptochloa chinensis = experiment: Test Example 3: herbicidal effect by foliage application, Wagner pot (symbol D); details: application herbicide amount 320 g/ha
# Method in brief: as §2
# Cyperus difformis = experiment: Test Example 3: herbicidal effect by foliage application, Wagner pot (symbol E); details: application herbicide amount 320 g/ha
# Method in brief: as §2
# [3] = tested on: directly sowed rice plant; experiment: Test Example 3: effect on crop by foliage application, Wagner pot (symbol b); details: application herbicide amount 320 g/ha
# Method in brief: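 Alluvial soil in a 1/10000-are Wagner pot was flooded to a water depth of 0.1–0.5 cm. Echinochloa crus-galli var. crus-galli, Leptochloa chinensis, Cyperus difformis and rice were sown into it and grown in a greenhouse at 25–30 °C.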
# Digitaria ciliaris = experiment: Test Example 4: herbicidal effect by soil treatment (symbol F); details: application herbicide amount 320 g/ha
# Method in brief: (§3)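 Seeds were sown in sterilized diluvial soil, covered with about 1.5 cm of soil, and the soil surface was sprayed with a water-diluted emulsion of the compound at a predetermined rate. Plants grew in a greenhouse at 25° C. to 30° C.; effects were scored visually 3 weeks after application.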
# Alopecurus myosuroides [4] = experiment: Test Example 4: herbicidal effect by soil treatment (symbol J); details: application herbicide amount 320 g/ha
# Method in brief: as §3
# corn = experiment: Test Example 4: effect on crop by soil treatment (symbol c); details: application herbicide amount 320 g/ha
# Method in brief: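 Soil-treatment setup: crop and weed seeds were spot-sown into sterilized diluvial soil, then buried beneath approximately 1.5 cm of it, and the boxes were housed in a 25–30° C. greenhouse.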
# rapeseed = experiment: Test Example 4: effect on crop by soil treatment (symbol g); details: application herbicide amount 320 g/ha
# Method in brief: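 Crop seed is sown in spots together with several weed species in a box of sterilized diluvial soil. It is covered by about 1.5 cm of soil and kept in a greenhouse held between 25° C. and 30° C.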
# Alopecurus myosuroides [5] = experiment: Test Example 5: herbicidal effect by foliage application, plastic box (symbol J); details: 320 g/ha, 3 weeks after application
# Method in brief: (§4)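 Greenhouse foliar test: seedlings at 14 days, grown 25° C. to 30° C. in sterilized diluvial soil; compound applied as an aqueous dilution of an emulsion; response read 3 weeks after spraying.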
# Apera spica-venti = experiment: Test Example 5: herbicidal effect by foliage application, plastic box (symbol L); details: 320 g/ha, 3 weeks after application
# Method in brief: as §4
# Abutilon theophrasti = experiment: Test Example 5: herbicidal effect by foliage application, plastic box (symbol M); details: 320 g/ha, 3 weeks after application
# Method in brief: as §4
# Stellaria media = experiment: Test Example 5: herbicidal effect by foliage application, plastic box (symbol P); details: 320 g/ha, 3 weeks after application
# Method in brief: as §4
# Galium spurium = experiment: Test Example 5: herbicidal effect by foliage application, plastic box (symbol Q); details: 320 g/ha, 3 weeks after application
# Method in brief: as §4
# wheat = experiment: Test Example 5: effect on crop by foliage application, plastic box (symbol e); details: 320 g/ha, 3 weeks after application
# Method in brief: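 A greenhouse held between 25° C. and 30° C. was used to grow plants sown spot-wise, beneath ~1.5 cm of soil, in boxes of sterilized diluvial soil.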
Structure (SMILES),"Herbicidal effect grade, A: Echinochloa oryzacola Vasing. [1]","Herbicidal effect grade, B: Scirpus juncoides (Scirpus juncoides)","herbicidal effect on H (Echinochloa crus-galli var. crus-galli), grade 0-5 [2]","herbicidal effect on D (Leptochloa chinensis), grade 0-5 (Leptochloa chinensis)","herbicidal effect on E, grade 0-5 (Cyperus difformis)","effect on crop b (directly sowed rice plant), grade 0-5 [3]",F (Digitaria ciliaris) herbicidal effect grade (Digitaria ciliaris),J (Alopecurus myosuroides) herbicidal effect grade (Alopecurus myosuroides [4]),c (corn) effect on crop grade (corn),g (rapeseed) effect on crop grade (rapeseed),"J: Alopecurus myosuroides, herbicidal effect grade (Alopecurus myosuroides [5])","L: Apera spica-venti, herbicidal effect grade (Apera spica-venti)","M: Abutilon theophrasti, herbicidal effect grade (Abutilon theophrasti)","P: Stellaria media, herbicidal effect grade (Stellaria media)","Q: Galium spurium, herbicidal effect grade (Galium spurium)","e: wheat, effect on crop grade (wheat)"
CON=C(CC1CC(O)=C(c2c(C)cc(C)cc2C)C1=O)C(C)C (centres unmarked) [1-048],5 (Herbicidal ratio of 90% or more (almost completely withered)),4 (Herbicidal ratio of 70% or higher and lower than 90%),5 (Herbicidal ratio of 90% or more (almost completely withered)),4 (Herbicidal ratio of 70% or higher and lower than 90%),5 (Herbicidal ratio of 90% or more (almost completely withered)),5 (Herbicidal ratio of 90% or more (almost completely withered)),5 (Herbicidal ratio of 90% or more (almost completely withered)),5 (Herbicidal ratio of 90% or more (almost completely withered)),3 (Herbicidal ratio of 40% or higher and lower than 70%),0 (Herbicidal ratio of 5% or lower (almost no effect)),5 (Herbicidal ratio of 90% or more (almost completely withered)),5 (Herbicidal ratio of 90% or more (almost completely withered)),3 (Herbicidal ratio of 40% or higher and lower than 70%),3 (Herbicidal ratio of 40% or higher and lower than 70%),1 (Herbicidal ratio of 5% or higher and lower than 20%),0 (Herbicidal ratio of 5% or lower (almost no effect))
CON=C(C)C(c1ccc(F)cc1)C1CC(O)=C(c2c(C)cc(C)cc2C)C1=O (centres unmarked) [1-049],0 (Herbicidal ratio of 5% or lower (almost no effect)),0 (Herbicidal ratio of 5% or lower (almost no effect)),0 (Herbicidal ratio of 5% or lower (almost no effect)),0 (Herbicidal ratio of 5% or lower (almost no effect)),0 (Herbicidal ratio of 5% or lower (almost no effect)),0 (Herbicidal ratio of 5% or lower (almost no effect)),0 (Herbicidal ratio of 5% or lower (almost no effect)),0 (Herbicidal ratio of 5% or lower (almost no effect)),0 (Herbicidal ratio of 5% or lower (almost no effect)),0 (Herbicidal ratio of 5% or lower (almost no effect)),0 (Herbicidal ratio of 5% or lower (almost no effect)),0 (Herbicidal ratio of 5% or lower (almost no effect)),0 (Herbicidal ratio of 5% or lower (almost no effect)),0 (Herbicidal ratio of 5% or lower (almost no effect)),0 (Herbicidal ratio of 5% or lower (almost no effect)),0 (Herbicidal ratio of 5% or lower (almost no effect))
CON=CCC1CC(O)=C(c2c(C)cc(C)cc2C)C1=O (centres unmarked) [1-050],4 (Herbicidal ratio of 70% or higher and lower than 90%),2 (Herbicidal ratio of 20% or higher and lower than 40%),5 (Herbicidal ratio of 90% or more (almost completely withered)),4 (Herbicidal ratio of 70% or higher and lower than 90%),5 (Herbicidal ratio of 90% or more (almost completely withered)),5 (Herbicidal ratio of 90% or more (almost completely withered)),5 (Herbicidal ratio of 90% or more (almost completely withered)),0 (Herbicidal ratio of 5% or lower (almost no effect)),0 (Herbicidal ratio of 5% or lower (almost no effect)),0 (Herbicidal ratio of 5% or lower (almost no effect)),4 (Herbicidal ratio of 70% or higher and lower than 90%),3 (Herbicidal ratio of 40% or higher and lower than 70%),3 (Herbicidal ratio of 40% or higher and lower than 70%),0 (Herbicidal ratio of 5% or lower (almost no effect)),0 (Herbicidal ratio of 5% or lower (almost no effect)),0 (Herbicidal ratio of 5% or lower (almost no effect))
CCCCCCCON=C(C)CC1CC(O)=C(c2c(C)cc(C)cc2C)C1=O (centres unmarked) [1-054],5 (Herbicidal ratio of 90% or more (almost completely withered)),0 (Herbicidal ratio of 5% or lower (almost no effect)),5 (Herbicidal ratio of 90% or more (almost completely withered)),3 (Herbicidal ratio of 40% or higher and lower than 70%),0 (Herbicidal ratio of 5% or lower (almost no effect)),5 (Herbicidal ratio of 90% or more (almost completely withered)),5 (Herbicidal ratio of 90% or more (almost completely withered)),1 (Herbicidal ratio of 5% or higher and lower than 20%),0 (Herbicidal ratio of 5% or lower (almost no effect)),1 (Herbicidal ratio of 5% or higher and lower than 20%),4 (Herbicidal ratio of 70% or higher and lower than 90%),3 (Herbicidal ratio of 40% or higher and lower than 70%),0 (Herbicidal ratio of 5% or lower (almost no effect)),0 (Herbicidal ratio of 5% or lower (almost no effect)),0 (Herbicidal ratio of 5% or lower (almost no effect)),0 (Herbicidal ratio of 5% or lower (almost no effect))
CCCC(CC1CC(O)=C(c2c(C)cc(C)cc2C)C1=O)=NOC (centres unmarked) [1-062],5 (Herbicidal ratio of 90% or more (almost completely withered)),2 (Herbicidal ratio of 20% or higher and lower than 40%),4 (Herbicidal ratio of 70% or higher and lower than 90%),3 (Herbicidal ratio of 40% or higher and lower than 70%),4 (Herbicidal ratio of 70% or higher and lower than 90%),5 (Herbicidal ratio of 90% or more (almost completely withered)),5 (Herbicidal ratio of 90% or more (almost completely withered)),5 (Herbicidal ratio of 90% or more (almost completely withered)),4 (Herbicidal ratio of 70% or higher and lower than 90%),3 (Herbicidal ratio of 40% or higher and lower than 70%),5 (Herbicidal ratio of 90% or more (almost completely withered)),5 (Herbicidal ratio of 90% or more (almost completely withered)),0 (Herbicidal ratio of 5% or lower (almost no effect)),0 (Herbicidal ratio of 5% or lower (almost no effect)),0 (Herbicidal ratio of 5% or lower (almost no effect)),0 (Herbicidal ratio of 5% or lower (almost no effect))
